pIC50: −log10 of the molar value.
molecular target: T1, recombinant autotaxin (Homo sapiens, UniProt Q13822); test: Autotaxin test (enzyme test), Amplex Red fluorescence; format: biochemical; conditions: substrate LPC 75 μM, Amplex Red detection, read-out: IC50 (autotaxin inhibition, enzyme test)
T1 construct: made in house; host or cells: Hi5 insect cells (baculovirus)
Experimental: Autotaxin Inhibition (Enzyme Test)
Autotaxin Test (Enzyme Test)
The autotaxin activity is measured indirectly using Amplex Red reagent. Amplex Red is measured here as fluorogenic indicator for the H2O2 formed. In detail, autotaxin converts the substrate lysophosphatidylcholine (LPC) into phosphocholine and lysophosphatidylic acid (LPA). After this reaction, the phosphocholine is reacted with alkaline phosphatase to give inorganic phosphate and choline. In the next step, choline is oxidised by choline oxidase to give betaine, with formation of H2O2. H2O2 reacts with Amplex Red reagent in the presence of peroxidase (horseradish peroxidase) in a 1:1 stoichiometry and forms the highly fluorescent resorufin. The fluorescence is measured in a reaction-dependent kinetic mode in order that fluorescent signals from possible other fluorescent substances which are not involved in the reaction can be corrected out.
1.5 μl of a standard solution or of the test substances (substances with the name A(n)) in individual concentrations dissolved in 20 mM Hepes pH 7.2 with a maximum of 7.7% of DMSO are pre-incubated together with 10 μl (16 ng) of highly purified recombinant autotaxin in a black microtitre plate provided with 384 wells at 22° C. for 30 min. The reaction is then initiated by addition of 5 μl of L-α-lysophosphatidylcholine (LPC), where the final concentration of LPC is 75 μM. The mixture is incubated at 37° C. for 90 min. After the incubation, Amplex Red reagent, peroxidase (horseradish peroxidase) and choline oxidase is added, and the fluorescence is immediately measured at 612 nm with excitation of 485 nm in a “Tecan Ultra multimode” reader. The activity of autotaxin is calculated indirectly via detection of the H2O2 formed. • Material: • Microtitre plate: PS microplate, 384 wells, small volume, black Corning, Cat #3677 • Protein: recombinant autotaxin (Baculovirale Hi5 Expression) • Substrate: L-α-lysophosphatidylcholine (chicken egg)); Avanti Polar Lipids #830071 P • Standard: C14 LPA, Avanti Polar Lipids, Cat #857120P • Detection reagent: Amplex Red reagent; Invitrogen #A12222; dissolved in 1.923 ml of DMSO peroxidase type VI-A (horseradish) from Sigma #P6782; dissolved in 7.45 ml of test buffer, choline oxidase; Sigma #C5896; dissolved in 2.47 ml of test buffer • Detection reagent mix: 1:100 dilution of Amplex Red reagent in test buffer • Test buffer: 200 mM Tris HCl, Merck, Cat #1.08219, pH 7.9, 0.1% of BSA, lipid-free, Roche Cat #775835

| pIC50 | Molecule |
| --- | --- |
| 5.00 to 6.00 | CC(C)c1ccc(NC(=O)Nc2[nH]c(Cc3ccc(OCC(=O)O)cc3)nc2C(N)=O)cc1 [Compound A1, (4-{4-carbamoyl-5-[3-(4-isopropylphenyl)ureido]-1H-imidazol-2-ylmethyl}phenoxy)acetic acid] |
| 5.00 to 6.00 | CC(C)c1ccc(NC(=O)Nc2[nH]c(Cc3ccc(C(=O)O)cc3)nc2C(N)=O)cc1 [Compound A2, 4-{4-Carbamoyl-5-[3-(4-isopropylphenyl)ureido]-1H-imidazol-2-ylmethyl}benzoic acid] |
| < 5.00 | CCCCc1ccc(NC(=O)Nc2[nH]c(Cc3ccc(C(=O)O)cc3)nc2C(N)=O)cc1 [Compound A3, 4-{5-[3-(4-Butylphenyl)ureido]-4-carbamoyl-1H-imidazol-2-ylmethyl}benzoic acid] |
| < 5.00 | CCCCCCNC(=O)Nc1[nH]c(Cc2ccc(C(=O)O)cc2)nc1C(N)=O [Compound A4, 4-[4-Carbamoyl-5-(3-hexylureido)-1H-imidazol-2-ylmethyl]benzoic acid] |
| < 5.00 | Cc1ccc(NC(=O)Nc2[nH]c(Cc3ccc(C(=O)O)cc3)nc2C(N)=O)cc1 [Compound A5, 4-[4-Carbamoyl-5-(3-p-tolylureido)-1H-imidazol 2-ylmethyl]benzoic acid] |
| 5.00 to 6.00 | NC(=O)c1nc(Cc2ccc(C(=O)O)cc2)[nH]c1NC(=O)Nc1ccc(Cl)cc1 [Compound A6, 4-{4-Carbamoyl-5-[3-(4-chlorophenyl)ureido]-1H imidazol-2-ylmethyl}benzoic acid] |
| 5.00 to 6.00 | CCc1ccc(NC(=O)Nc2[nH]c(Cc3ccc(C(=O)O)cc3)nc2C(N)=O)cc1 [Compound A7, 4-{4-Carbamoyl-5-[3-(4-ethylphenyl)ureido]-1H imidazol-2-ylmethyl}benzoic acid] |
| 5.00 to 6.00 | Cc1c(Cl)cccc1NC(=O)Nc1[nH]c(Cc2ccc(C(=O)O)cc2)nc1C(N)=O [Compound A8, 4-{4-Carbamoyl-5-[3-(3-chloro-2-methylphenyl)-ureido]-1H-imidazol-2-ylmethyl}benzoic acid] |
| 5.00 to 6.00 | NC(=O)c1nc(Cc2ccc(C(=O)O)o2)[nH]c1NC(=O)Nc1ccc(C(F)(F)F)cc1 [Compound A10, 5-{4-Carbamoyl-5-[3-(4-trifluoromethylphenyl)-ureido]-1H-imidazol-2-ylmethyl}furan-2-carboxylic acid] |
| 5.00 to 6.00 | CCc1ccc(NC(=O)Nc2[nH]c(Cc3ccc(C(=O)O)o3)nc2C(N)=O)cc1 [Compound A11, 5-{4-Carbamoyl-5-[3-(4-ethylphenyl)ureido]-1H-imidazol-2-ylmethyl}furan-2-carboxylic acid] |
| 5.00 to 6.00 | CC(C)c1ccc(NC(=O)Nc2[nH]c(Cc3ccc(C(=O)O)o3)nc2C(N)=O)cc1 [Compound A12, 5-{4-Carbamoyl-5-[3-(4-isopropylphenyl)ureido]-1H-imidazol-2-ylmethyl}furan-2-carboxylic acid] |
| < 5.00 | Cc1c(Cl)cccc1NC(=O)Nc1[nH]c(Cc2ccc(C(=O)O)o2)nc1C(N)=O [Compound A13, 5-{4-Carbamoyl-5-[3-(3-chloro-2-methylphenyl)-ureido]-1H-imidazol-2-ylmethyl}furan-2-carboxylic acid] |
| < 5.00 | Cc1ccc(NC(=O)Nc2[nH]c(Cc3ccc(C(=O)O)o3)nc2C(N)=O)c(C)c1 [Compound A14, 5-{4-Carbamoyl-5-[3-(2,4-dimethylphenyl)-ureido]-1H-imidazol-2-ylmethyl}furan-2-carboxylic acid] |
| 5.00 to 6.00 | NC(=O)c1nc(Cc2ccc(C(=O)O)cc2)[nH]c1NC(=O)Nc1ccc(C(F)(F)F)cc1 [Compound A15, 4-{4-Carbamoyl-5-[3-(4-tritluoromethylphenyl)-ureido]-1H-imidazol-2-ylmethyl}benzoic acid] |
| < 5.00 | Cc1cccc(C)c1NC(=O)Nc1[nH]c(Cc2ccc(C(=O)O)cc2)nc1C(N)=O [Compound A16, 4-{4-Carbamoyl-5-[3-(2,6-dimethylphenyl)-ureido]-1H-imidazol-2-ylmethyl}benzoic acid] |
| < 5.00 | NC(=O)c1nc(Cc2ccc(C(=O)O)cc2)[nH]c1NC(=O)Nc1cc(C(F)(F)F)ccc1F [Compound A17, 4-{4-Carbamoyl-5-[3-(2-tluoro-5-trifluoromethyl-phenyl)ureido]-1H-imidazol-2-ylmethyl}benzoic acid] |
| < 5.00 | NC(=O)c1nc(-c2ccc(C(=O)O)cc2)[nH]c1NC(=O)Nc1ccc(C(F)(F)F)cc1 [Compound A18, 4-{4-Carbamoyl-5-[3-(4-trifluoromethylphenyl)-ureido]-1H-imidazol-2-yl}benzoic acid] |
| < 5.00 | CCc1ccc(NC(=O)Nc2[nH]c(-c3ccc(C(=O)O)cc3)nc2C(N)=O)cc1 [Compound A19, 4-{4-Carbamoyl-5-[3-(4-ethylphenyl)ureido]-1H-imidazol-2-yl}benzoic acid] |
| < 5.00 | NC(=O)c1nc(-c2ccc(CC(=O)O)cc2)[nH]c1NC(=O)Nc1ccc(C(F)(F)F)cc1 [Compound A20, (4-{4-Carbamoyl-5-[3-(4-trifluoromethylphenyl)-ureido]-1H-imidazol-2-yl}phenyl)acetic acid] |
| < 5.00 | NC(=O)c1nc(-c2ccc(CC(=O)O)cc2)[nH]c1NC(=O)Nc1cccc(Cl)c1 [Compound A21, (4-{4-Carbamoyl-5-[3-(3-chlorophenyl)ureido]-1H-imidazol-2-yl}phenyl)acetic acid] |
| < 5.00 | NC(=O)c1nc(-c2ccc(CC(=O)O)cc2)[nH]c1NC(=O)Nc1ccc(Cl)cc1 [Compound A22, (4-{4-Carbamoyl-5-[3-(4-chlorophenyl)ureido]-1H-imidazol-2-yl}phenyl)acetic acid] |
| < 5.00 | CC(C)c1ccc(NC(=O)Nc2[nH]c(-c3ccc(CC(=O)O)cc3)nc2C(N)=O)cc1 [Compound A23, (4-{4-Carbamoyl-5-[3-(4-isopropylphenyl)ureido]-1H-imidazol-2-yl}phenyl)acetic acid] |
| < 5.00 | Cc1ccc(NC(=O)Nc2[nH]c(-c3ccc(CC(=O)O)cc3)nc2C(N)=O)c(C)c1 [Compound A24, (4-{4-Carbamoyl-5-[3-(2,4-dimethylphenyl)-ureido]-1H-imidazol-2-yl}phenyl)acetic acid] |
| < 5.00 | Cc1cc(C)cc(NC(=O)Nc2[nH]c(-c3ccc(CC(=O)O)cc3)nc2C(N)=O)c1 [Compound A25, (4-{4-Carbamoyl-5-[3-(3,5-dimethylphenyl)-ureido]-1H-imidazol-2-yl}phenyl)acetic acid] |
| < 5.00 | Cc1cccc(C)c1NC(=O)Nc1[nH]c(Cc2ccc(C(=O)O)o2)nc1C(N)=O [Compound A26, 5-{4-Carbamoyl-5-[3-(2,6-dimethylphenyl)-ureido]-1H-imidazol-2-ylmethyl}furan-2-carboxylic acid] |
| 5.00 to 6.00 | NC(=O)c1nc(Cc2ccc(C(=O)O)o2)[nH]c1NC(=O)NCCc1ccccc1 [Compound A27, 5-[4-Carbamoyl-5-(3-phenethylureido)-1H-imidazol-2-ylmethyl]furan-2-carboxylic acid] |
| < 5.00 | CCc1cccc(CC)c1NC(=O)Nc1[nH]c(Cc2ccc(C(=O)O)o2)nc1C(N)=O [Compound A28, 5-{4-Carbamoyl-5-[3-(2,6-diethylphenyl)ureido]-1H-imidazol-2-ylmethyl}furan-2-carboxylic acid] |
| < 5.00 | NC(=O)c1nc(Cc2ccc(C(=O)O)o2)[nH]c1NC(=O)Nc1ccc(Cl)c(C(F)(F)F)c1 [Compound A29, 5-{4-Carbamoyl-5-[3-(4-chloro-3-trifluoromethyl-phenyl)ureido]-1H-imidazol-2-ylmethyl}furan-2-carboxylic acid] |
| 5.00 to 6.00 | NC(=O)c1nc(Cc2ccc(C(=O)O)o2)[nH]c1NC(=O)Nc1ccc(Cl)cc1 [Compound A30, 5-{4-Carbamoyl-5-[3-(4-chlorophenyl)ureido]-1H-imidazol-2-ylmethyl}furan-2-carboxylic acid] |
| 5.00 to 6.00 | Cc1cc(C)c(NC(=O)Nc2[nH]c(Cc3ccc(C(=O)O)o3)nc2C(N)=O)c(C)c1 [Compound A31, 5-{4-Carbamoyl-5-[3-(2,4,6-trimethylphenyl)-ureido]-1H-imidazol-2-ylmethyl}furan-2-carboxylic acid] |

| Molecule | pIC50 |
| --- | --- |
| 5-[3-(4-Butylphenyl)ureido]-2-(5-cyclopropyl-carbamoylfuran-2-ylmethyl)-1H-imidazole-4-carboxamide [Compound A89] | < 5.00 |
| CCCCOc1ccc(NC(=O)Nc2[nH]c(Cc3ccc(C(=O)O)cc3)nc2C(N)=O)cc1 [Compound A9, 4-{5-[3-(4-Butoxyphenyl)ureido]-4-carbamoyl-1H-imidazol-2-ylmethyl}benzoic acid] | 5.00 to 6.00 |

Source: patent US20100249132A1, “IMIDAZOLE DERIVATIVES” (MERCK PATENT GESELLSCHAFT MIT BESCHRANKTER HAFTUNG, priority 2007, published 2010)
